For assay [1], the target named is T1, Muscarinic acetylcholine receptor M4 (Homo sapiens) (UniProt P08173).
T1 sequence (whole entry): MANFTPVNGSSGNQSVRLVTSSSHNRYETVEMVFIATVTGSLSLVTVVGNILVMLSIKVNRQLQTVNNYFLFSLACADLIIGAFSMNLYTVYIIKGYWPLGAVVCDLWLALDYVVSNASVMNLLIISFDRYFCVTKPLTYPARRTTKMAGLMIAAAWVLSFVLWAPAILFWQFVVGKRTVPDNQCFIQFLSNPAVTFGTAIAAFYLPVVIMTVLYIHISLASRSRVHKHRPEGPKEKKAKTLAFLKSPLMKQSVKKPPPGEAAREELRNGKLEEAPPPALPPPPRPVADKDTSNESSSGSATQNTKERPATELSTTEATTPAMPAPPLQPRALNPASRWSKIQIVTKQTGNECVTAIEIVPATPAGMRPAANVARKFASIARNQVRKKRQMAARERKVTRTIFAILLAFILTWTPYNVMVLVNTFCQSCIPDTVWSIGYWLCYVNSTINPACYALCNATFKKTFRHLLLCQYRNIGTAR
The assay can be described thus: Positive allosteric modulator activity at human M4 receptor expressed in CHO cells co-expressing Gqi5 assessed as maximal response to ACh by calcium mobilization assay relative to contol. To be noted: filed as positive allosteric modulator. Type of assay: cell-based. A general note: Calcium assays in cells follow changes in intracellular calcium, usually with a dye or a luminescent sensor.

Assay [2] concerns the target T2, Muscarinic acetylcholine receptor M4 (Homo sapiens, UniProt P08173).
T2 sequence (P08173 whole entry): T1 sequence (whole entry)
The assay can be described thus: Positive allosteric modulator activity at human M4 receptor expressed in CHO cells co-expressing Gqi5 in presence of EC20 concentration of acetylcholine by calcium mobilization assay. Type of assay: cell-based.

`COc1ccc(CNC(=O)c2sc3nnc(C)c(C)c3c2N)cc1`: the Activity in assay [1] worked out at 83.7%. For the same compound, the EC50 in assay [2] (read-out: EC50) stood at 130 nM.
`COc1ccc(CNC(=O)c2sc3nnc(C)c(C)c3c2N)cn1`: the Activity in assay [1] is 76.9%. In addition, the EC50 in assay [2] (read-out: EC50) was found to be 239 nM.
In the same order, the values of `Cc1nnc2sc(C(=O)NCc3ccc(O)cc3)c(N)c2c1C` are 69.8% and 96.7 nM.
The matching figures for `COc1ccc(CNC(=O)c2sc3nnc(C)c(C)c3c2N)c(F)c1F`: 71.2% and 43.4 nM.
Consider `COc1cc(F)c(CNC(=O)c2sc3nnc(C)c(C)c3c2N)c(F)c1`, for which the Activity in assay [1] stood at 87.1%. In assay [2] (read-out: EC50), the EC50 is 100 nM.
On to `COc1cc(F)c(CNC(=O)c2sc3nnc(C)c(C)c3c2N)cc1F`, for which, in assay [1], the Activity is 68.5%. The EC50 in assay [2] (read-out: EC50) came to 41.4 nM.
Regarding `Cc1nnc2sc(C(=O)NCc3ccc(O)c(F)c3)c(N)c2c1C`, the Activity in assay [1] was determined as 83.1%. Also, the EC50 is 59.1 nM in assay [2] (read-out: EC50) and 60.3 nM in assay [2] (read-out: pEC50 (converted)).
Turning to `COc1ncc(CNC(=O)c2sc3nnc(C)c(C)c3c2N)cc1F`, the Activity in assay [1] was 80.8%. The EC50 in assay [2] (read-out: EC50) turned out to be 142 nM.
As to `COc1ccc([C@@H](C)NC(=O)c2sc3nnc(C)c(C)c3c2N)cc1F`, the pEC50 in assay [2] (cho) is under 5. The EC50 in assay [2] (read-out: EC50) was over 10000 nM.
In the case of `COc1ccc(CNC(=O)c2sc3nnc(C)c(C)c3c2N)c(F)c1`, the Activity in assay [1] was 75.5%. Also, the EC50 in assay [2] (read-out: EC50) was found to be 90.6 nM.
In the same order, the values of `COc1c(F)cc(CNC(=O)c2sc3nnc(C)c(C)c3c2N)cc1F` are 75.3% and 84.1 nM.
`COc1ccc([C@H](C)NC(=O)c2sc3nnc(C)c(C)c3c2N)cc1F`: the Activity in assay [1] was found to be 62.4%. Besides, in assay [2] (read-out: EC50), the EC50 came out at 508 nM.

As a reminder, the pEC50 is −log10 of the EC50, conventionally taken in molar units.

Source of the values: ChEMBL document CHEMBL5252536, “Discovery of VU0467485/AZ13713945: An M4 PAM Evaluated as a Preclinical Candidate for the Treatment of Schizophrenia” (ACS Med Chem Lett, 2017).
